Measurements reported in patent publication US20220031710A1, “USE OF ERK5 INHIBITORS FOR TREATING GLIOMAS IN PEDIATRIC SUBJECTS” (UNIVERSITY OF PITTSBURGH - OF THE COMMONWEALTH SYSTEM OF …, priority 2019, published 2022).

What was measured:
DIPG-IV cells [1] = experiment: EC50 of ERK5-IN-1 in DIPG-IV cells expressing ERK5-HA, ERK5-HA T733E or MYC S62D; format: cell-based, human
Description: Wildtype human H3F3A cDNA was ligated with a puromycin selection marker and a self-cleaving T2A sequence using Gibson Assembly Cloning and cloned into pLV with an EF1a promoter. HA-RASAL1 (NM_001193520.1) with an N-terminal HA tag, MYC (NM_002467.4), or MAPK7 (ERK5, NM_139033) were ligated with T2A mCherry and cloned into pLV under the control of the EF1a promoter. Cloning and plasmid sequence validation were performed by VectorBuilder Services (Santa Clara, Calif. 95050). Site-directed mutagenesis was performed to generate H3F3A K27M, H3F3A G34R, MYC S62D, and ERK5 mutant constructs using the QuikChange II Site-Directed Mutagenesis Kit and manufacturer's protocol (Agilent, Cat #200523, Santa Clara, Calif. 95051). Lentiviral ERK5 GIPZ shRNA plasmids were purchased from Dharmacon (Lafayette, Colo. 80026, Cat #RHS4531-EG5598 glycerol set: V2LHS 202701, V3LHS_366737, V3LHS_366738, V3LHS_366740, V3LHS_640828, V3LHS_640830).
Direct cell counts were performed using the Countess II FL Automated Cell Counter (ThermoFisher Scientific). Alamar blue viability (ThermoFisher Scientific) and the 5-bromo-2′-deoxyuridine (BrdU) incorporated cell proliferation assay (Cell Signaling Technology Cat #6813) were performed using the manufacturer's standard protocol. EC50 curve analysis was performed using raw fluorescent Alamar blue values that were inputted into PRISM 7.0. […]

DIPG-IV cells [2] = experiment: Cleaved Caspase 3/7 assay in DIPG-IV cells expressing ERK5 constructs; format: cell-based, human; conditions: 500 nM; DIPG-IV cells expressing ERK5-HA or ERK5-HA T733E vs empty vector
ERK5 = ERK5 (Homo sapiens, UniProt Q13164); experiment: Western blot of ERK5 phosphorylation sites in DIPG cells; format: cell-based; parameters: endogenous in cells; host or cells: DIPG-007 and DIPG-IV cells; conditions: DIPG-007 and DIPG-IV cells
Description: (§1) Cell pellets were lysed in PLC lysis buffer containing protease and phosphatase inhibitors (Roche Inc.). Protein lysates were quantified using the bicinchoninic acid (BCA) assay (Pierce Chemical Co., Rockford, Ill.). 30 μg of total protein lysate was loaded in 10% SDS-PAGE gels and electrophoresed. Proteins were transferred to PVDF membranes using a semi-dry transfer apparatus (Bio-Rad). Membranes were blocked for one hour and probed for various proteins overnight in 5% non-fat milk or 5% BSA in Tris Buffered Saline Solution, 0.5% Tween-20 (TBST) or Phosphate Buffered Saline Solution with 0.5% Tween-20 (PBST). Membranes were washed for 5 mins in TBST (3×) and incubated with horseradish peroxidase-conjugated antibodies specific for the primary antibody (BioRad Laboratories, Inc., CA, USA). Binding was detected using Chemiluminescence Reagent Plus (PerkinElmer Inc., MA, USA).

[3] = system: DIPG-007, DIPG-IV, SF8628 and DIPG-13p cells; experiment: Annexin-PI flow cytometry apoptosis assay; format: cell-based, human; conditions: for populations in early apoptosis, late apoptosis and necrosis / viable cells (Annexin negative, PI negative): 48 h, vs DMSO vehicle
Description: Apoptosis was quantified using the Pacific Blue Annexin V Apoptosis Detection Kit with propidium iodide (BioLegend, San Diego, Calif. Cat #640926). Analysis was performed at the Flow Cytometry Core, Rangos Research Center, UPMC Children's Hospital of Pittsburgh.

[4] = system: DIPG-007, DIPG-IV, SF8628 and DIPG-13p cells; experiment: Direct Trypan-Blue automated cell count of DIPG cells; format: cell-based, human
Description: Direct cell counts were performed using the Countess II FL Automated Cell Counter (ThermoFisher Scientific). Alamar blue viability (ThermoFisher Scientific) and the 5-bromo-2′-deoxyuridine (BrdU) incorporated cell proliferation assay (Cell Signaling Technology Cat #6813) were performed using the manufacturer's standard protocol. EC50 curve analysis was performed using raw fluorescent Alamar blue values that were inputted into PRISM 7.0. Drug concentrations were log 10 transformed and values normalized to percent viability with respect to vehicle treated cells. EC50 values were interpolated from a log inhibitor vs. normalized response with variable slope using a least square fit model.

MYC = experiment: Western blot of phospho MYC S62 and total MYC in DIPG cells; format: cell-based, human; conditions: DIPG-IV and SF8628 cells; 500 nM
Description: as §1

MYCN = MYCN qRT-PCR and western blot in DIPG-13p cells; format: cell-based, human
Description: as §1, with “Membranes were washed for 5 mins in TBST (3×) and incubated with horseradish peroxidase-conjugated antibodies specific for the primary antibody (BioRad Laboratories, Inc., CA, USA).” left out, “USA). […]” for “USA).”
Total RNA isolation was performed using an RNA extraction kit according to the manufacturer's instructions (RNeasy kit, Qiagen). cDNA was synthesized from 100 ng of total RNA using the Quantitect RT kit which included DNAse treatment (Qiagen). Quantitative real-time PCR was performed on 10 ng of cDNA template in a final volume of 20 μl using the Chromo4 Real Time PCR detector (MJ Research, a Division of Bio-Rad Laboratories Ltd) using SYBR green fluorescence. RT-PCR data was analyzed using Opticon Monitor 3.1.3 analysis software. […]

ERK5, sequence (Q13164 whole entry): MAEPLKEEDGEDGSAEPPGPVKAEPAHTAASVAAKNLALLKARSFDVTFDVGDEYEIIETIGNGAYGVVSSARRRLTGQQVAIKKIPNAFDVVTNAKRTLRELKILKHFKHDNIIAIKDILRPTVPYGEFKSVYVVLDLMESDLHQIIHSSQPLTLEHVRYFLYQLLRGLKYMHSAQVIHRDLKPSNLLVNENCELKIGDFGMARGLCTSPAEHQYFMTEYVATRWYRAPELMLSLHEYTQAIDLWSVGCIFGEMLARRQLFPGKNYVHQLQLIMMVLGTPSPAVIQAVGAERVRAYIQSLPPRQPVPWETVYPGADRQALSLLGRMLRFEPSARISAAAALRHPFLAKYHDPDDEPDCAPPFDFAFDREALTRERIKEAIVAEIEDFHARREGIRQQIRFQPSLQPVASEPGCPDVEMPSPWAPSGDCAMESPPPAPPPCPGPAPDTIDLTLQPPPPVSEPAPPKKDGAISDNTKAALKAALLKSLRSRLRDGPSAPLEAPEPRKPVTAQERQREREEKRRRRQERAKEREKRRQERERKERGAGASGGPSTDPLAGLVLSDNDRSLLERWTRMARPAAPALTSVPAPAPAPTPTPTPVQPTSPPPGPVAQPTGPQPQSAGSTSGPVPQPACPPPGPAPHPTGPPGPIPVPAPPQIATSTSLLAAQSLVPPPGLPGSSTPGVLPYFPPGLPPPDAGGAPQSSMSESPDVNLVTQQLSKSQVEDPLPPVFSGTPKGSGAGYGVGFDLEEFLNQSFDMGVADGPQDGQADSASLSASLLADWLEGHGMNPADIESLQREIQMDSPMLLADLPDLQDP

Which “resistance to ERK5-IN-1 (EC50 values)” value (DIPG-IV cells [1]; DIPG-IV cells expressing MYC S62D vs empty vector control) does the source give for CCOc1cc(C(=O)N2CCC(N3CCN(C)CC3)CC2)ccc1Nc1ncc2c(n1)N(C1CCCC1)c1ccccc1C(=O)N2C [ERK5-IN-1, 11-cyclopentyl-2-[[2-ethoxy-4-[[4-(4-methyl-1-piperazinyl)-1-piperidinyl]carbonyl]phenyl]amino]-5,11-dihydro-5-methyl-6H-pyrimido[4,5b][1,4]benzodiazepin-6-one] here?
The value was “promoted resistance”.

What about the EC50 values (DIPG-IV cells [1]; DIPG-IV cells expressing wild-type HA-tagged ERK5 or constitutively active ERK5 T733E vs empty vector) of the same compound?
The EC50 values was “increased EC50 values”.

And the “cleaved Caspase 3/7 levels” value (DIPG-IV cells [2])?
Its value is “reduced cleaved Caspase 3/7 levels”.

And the “ERK5 Thr218/Tyr220 phosphorylation (regulated by MEK5)” value (ERK5)?
Its value is “did not inhibit”.

And the “ERK5 auto-phosphorylation and ERK5 activity sites (Ser731 and Thr733)” value (ERK5; at 100 nM)?
Its value is “inhibit”.

And the “populations in early apoptosis, late apoptosis and necrosis” value ([3]; DIPG-007 and DIPG-IV cells)?
Its value is “increased”.

What about the “viable cells (Annexin negative, PI negative)” value ([3]; DIPG-007 and DIPG-IV cells) of the same compound?
The value was “decreased”.

What about the “populations in early apoptosis, late apoptosis and necrosis” value ([3]; SF8628 and DIPG-13p cells) of the same compound?
The value was “increased”.

And the “viable cells (Annexin negative, PI negative)” value ([3]; SF8628 and DIPG-13p cells)?
The value was “decreased”.

What about the rates of apoptosis ([3]; DIPG-007 and DIPG-IV cells, compared to controls) of the same compound?
The rates of apoptosis was “significantly higher rates of apoptosis”.

What about the apoptosis ([3]; DIPG-13p and SF8628 cells) of the same compound?
The apoptosis was “induction of apoptosis”.

And the cell number ([4]; 500 nM, 9 days of treatment, DIPG-007, DIPG-IV, SF8628 cells, vs vehicle)?
Its cell number is “significant decreases in cell number”.

What about the cell growth ([4]; DIPG-13p and SF8628 cells) of the same compound?
The cell growth was “diminished cell growth”.

What about the “phospho and total MYC” value (MYC) of the same compound?
Its value is “reduced”.

What about the “MYCN protein and transcript levels” value (MYCN) of the same compound?
Its value is “down-regulation”.
